Key:
Type in all cases: cell-based
[1] = tested on: rat mesenchymal stem cells attached to H9c2 cells; test: Adhesion of bio-pin-treated mesenchymal stem cells to H9c2 cells (intercellular bond number); details: stem cells treated with 1 μM bio-pin for an hour, kept 10 minutes on H9c2 cells; fluorescence microscope and spectrometer
Method: (§1) Rat cardiac myoblast H9c2 cells were incubated until a 4-well chamber (Lab-Tek chamber slide) was 100% filled with the H9c2 cells. Thereafter, the H9c2 cells were treated with a cell-labeled dye (Vybrant™ DiI) at a final concentration of 5 μl/mL, reacted at 37° C. for 30 minutes in a CO2 incubator, and then washed three times with PBS.
(§2) Also, rat mesenchymal stem cells were cultured in a MesenPRO (Gibco, USA) medium in a petri dish. Thereafter, trypsin-EDTA and a trypsin-neutralizing solution were added at a ratio of 1:1, and then reacted for 5 minutes to detach the stem cells. The stem cells were treated with a cell-modifying dye (Vybrant™ DiO, Invitrogen, USA) at a final concentration of 5 μl/mL, reacted at 37° C. for 30 minutes in a CO2 incubator, washed three times with PBS, and then centrifuged for 3 minutes at a rotary speed of 1,200 rpm to be prepared.
(§3) The prepared stem cells were treated with the peptide-based complex previously prepared in Example 1 or 2 at a final concentration of 1 μM, reacted at 37° C. for an hour in a CO2 incubator while stirring right and left, washed three times with PBS, and then centrifuged to obtain a cell pellet. […] To quantify the MSCs attached to the H9c2 cells, a cell medium was removed off, and 200 μl of 0.1% Triton X-100 was added, and removed off after 5 minutes.

[2] = tested on: rat mesenchymal stem cells (MSCs) attached to H9c2 cells; test: Adhesion of BPin-RGD-treated mesenchymal stem cells to H9c2 cells (intercellular bond number); details: stem cells treated with 100 nM bio-pin for an hour, kept 10 minutes on H9c2 cells; fluorescence 484 nm/501 nm
Method: as §1, with “CellMask™ plasma membrane stain (Invitrogen, USA)” for “cell-labeled dye (Vybrant™ DiI)”
as §2, with “stem cells (MSCs) were cultured” for “stem cells were cultured”, “concentration of 2 μl/mL, reacted” for “concentration of 5 μl/mL, reacted”, “of 1,200 rpm.” for “of 1,200 rpm to be prepared.”
as §3, with “bio-pin” for “peptide-based complex previously”, “3” for “1 or 2”, “100 nM,” for “1 μM,”, “pellet. Subsequently, the cell pellet was re-suspended in 400 μl of a DMEM medium supplemented with 10% FBS.” for “pellet.”, “cells,” for “cells, a cell medium was removed off, and”

[3] = tested on: intercellular cell adhesion molecule-1 (ICAM-1); test: Immunoblotting of HUVEC lysate with anti-ICAM-1 antibody; details: TNF-alpha 10 ng/mL for 24 hours
Method: (§4) HUVECs (5×10^4 cells/well) were cultured in an EGM medium (Lonza, USA) on a 24-well plate, starved for 4 hours in a 0.5% EBM medium, and treated with TNF-alpha (10 ng/mL) for 24 hours. Thereafter, the HUVECs were treated with a CellMask™ plasma membrane stain (Invitrogen, USA) at a final concentration of 5 μg/mL, reacted at 37° C. for 30 minutes in a CO2 incubator, and then washed three times with PBS.
(§5) Also, to determine whether the HUVECs were suitably stimulated with TNF-alpha, immunoblotting was performed using anti-ICAM-1 and anti-VCAM-1 antibodies.

[4] = tested on: vascular cell adhesion molecule-1 (VCAM-1); test: Immunoblotting of HUVEC lysate with anti-VCAM-1 antibody; details: TNF-alpha 10 ng/mL for 24 hours
Method: as §4, §5

BPin-55: bio-pin in which TAT cell-penetrating peptides are fused with N- and C-terminus of 31-amino-acid OPRD first transmembrane domain peptide (YGRKKRRQRRRGSLAIAITALYSAVCAVGLLGNVLVMFGIVRYTYGRKKRRQRRR; BPin-55 TAT-OPRD-TAT)
number of intercellular bonds (FIGS. 5 and 6) [1]: remarkably increased

BPin-RGD: bio-pin with adhesive peptide (GRGDSP) at N-terminus and TAT cell-penetrating peptide at C-terminus of the 31-amino-acid OPRD peptide (GRGDSPGSLAIAITALYSAVCAVGLLGNVLVMFGIVRYTYGRKKRRQRRR; BPin-RGD RGD-OPRD-TAT)
number of intercellular bonds (FIG. 7) [2]: remarkably increased

TNF-alpha
ICAM-1 expression in HUVECs (FIG. 9) [3]: increasingly expressed | VCAM-1 expression in HUVECs (FIG. 9) [4]: increasingly expressed

— US9110059B2, “Bio-pin” (Industry-Academic Cooperation Foundation, Yonsei University, priority 2011, dated 2015)
